Data from patent US9409914B2, “Triazolo[4,5-d]pyrimidine derivatives” (Merck Patent GmbH, priority 2012, dated 2016).

What was measured:
GCN2 [1] = molecular target: T1, GCN2 (Homo sapiens, UniProt Q9P2K8); assay: GCN2 enzyme assay (TR-FRET Lanthascreen, phosphorylation of GFP-eIF2alpha); type: biochemical; settings: 10 μM ATP, 80 nM GFP-eIF2alpha, 30 nM GCN2, room temperature
Excerpt: GCN2: Assay principle & conditions
This assay can quantificate the activity of the serin kinase GCN2 (general control non-derepressible-2).
This kinase is involved in the stress metabolism of cells. It is activated upon starvation (amino acid depletion). Its natural substrate is eIF2a (eukaryotic initiation factor 2 alpha subunit), a translation factor, which gets activated (phosphorylated) by GCN2 in case of an amino acid bottleneck in the cells. This in turn leads to a halt of the protein synthesis. Inhibition of GCN2 results in stopping this mechanism: The cell can not stop protein production upon “starvation” stress.
The assay is run in two steps: the enzymatic reaction and the detection step. In the first step GCN2 is incubated with 10 μM ATP and 80 nM of the GFP-labelled substrate eIF2alpha at room temperature.
The enzymatic reaction is stopped by addition of EDTA. The amount of phosphorylated eIF2alpha is determined by TR-FRET (Lanthascreen): A complex is formed consisting of antibody and GFP labelled phospho-eIF2a, which allows a FRET upon exitation at 340 nm.
The GCN2-activity is directly proportional to the ratio of fluorescence units at the emission wavelengthh 520 nm (phosphopeptide-sensitive wavelength=emission of GFP) to the units at 495 nm (reference wavelength=emission of Terbium-chelate).
Final Concentrations in the Enzymatic Reaction
Target sequence in this assay (Q9P2K8 whole entry, species assumed): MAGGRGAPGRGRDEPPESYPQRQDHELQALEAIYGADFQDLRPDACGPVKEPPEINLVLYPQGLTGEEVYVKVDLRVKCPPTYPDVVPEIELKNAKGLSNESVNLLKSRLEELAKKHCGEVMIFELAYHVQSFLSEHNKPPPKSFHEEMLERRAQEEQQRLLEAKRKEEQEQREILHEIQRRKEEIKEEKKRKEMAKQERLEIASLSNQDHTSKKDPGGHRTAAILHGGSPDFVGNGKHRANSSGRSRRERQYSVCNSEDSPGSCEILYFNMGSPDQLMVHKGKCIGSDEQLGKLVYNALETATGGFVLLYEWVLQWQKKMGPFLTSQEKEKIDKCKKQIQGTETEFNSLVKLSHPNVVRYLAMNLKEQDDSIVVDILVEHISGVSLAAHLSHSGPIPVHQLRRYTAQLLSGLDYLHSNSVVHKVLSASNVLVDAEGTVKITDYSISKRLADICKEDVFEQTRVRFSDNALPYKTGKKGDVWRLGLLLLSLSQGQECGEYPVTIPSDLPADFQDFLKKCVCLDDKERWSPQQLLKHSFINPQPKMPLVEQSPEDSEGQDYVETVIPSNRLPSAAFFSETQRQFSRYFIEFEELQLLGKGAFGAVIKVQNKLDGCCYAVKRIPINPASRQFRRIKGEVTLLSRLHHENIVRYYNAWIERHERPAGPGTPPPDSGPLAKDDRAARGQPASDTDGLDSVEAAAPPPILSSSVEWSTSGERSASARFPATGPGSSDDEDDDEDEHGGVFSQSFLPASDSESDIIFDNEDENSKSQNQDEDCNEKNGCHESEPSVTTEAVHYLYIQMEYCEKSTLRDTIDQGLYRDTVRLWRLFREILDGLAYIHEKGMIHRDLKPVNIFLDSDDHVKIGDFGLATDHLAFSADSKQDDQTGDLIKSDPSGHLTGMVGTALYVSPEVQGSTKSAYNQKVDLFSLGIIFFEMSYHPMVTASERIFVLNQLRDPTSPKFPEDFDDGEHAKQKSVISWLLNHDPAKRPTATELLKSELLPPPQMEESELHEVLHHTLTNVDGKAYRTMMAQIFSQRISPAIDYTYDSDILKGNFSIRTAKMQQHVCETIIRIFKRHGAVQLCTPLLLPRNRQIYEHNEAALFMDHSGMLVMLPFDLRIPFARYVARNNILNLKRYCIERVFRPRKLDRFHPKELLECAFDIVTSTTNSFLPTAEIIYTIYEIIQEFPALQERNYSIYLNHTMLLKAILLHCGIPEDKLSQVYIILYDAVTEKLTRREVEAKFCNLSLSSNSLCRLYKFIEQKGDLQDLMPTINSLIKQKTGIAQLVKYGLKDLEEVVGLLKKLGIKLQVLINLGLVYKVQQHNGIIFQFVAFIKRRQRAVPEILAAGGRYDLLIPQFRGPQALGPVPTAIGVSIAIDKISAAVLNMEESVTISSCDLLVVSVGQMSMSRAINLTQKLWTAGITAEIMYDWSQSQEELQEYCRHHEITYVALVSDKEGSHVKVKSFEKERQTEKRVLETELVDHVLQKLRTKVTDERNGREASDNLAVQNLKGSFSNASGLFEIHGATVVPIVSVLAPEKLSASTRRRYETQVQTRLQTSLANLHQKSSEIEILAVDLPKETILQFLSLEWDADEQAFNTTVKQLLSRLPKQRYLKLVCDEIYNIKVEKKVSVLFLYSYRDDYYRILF

GCN2 [2] = molecular target: T1, GCN2; assay: Cellular assay for GCN2 activity (phospho-eIF2alpha immunocytochemistry, tryptophanol-stimulated U2OS cells); type: cell-based; design: endogenous in cells; host or cells: U2OS; settings: 2 hours compound, then 600 μM tryptophanol 30 minutes, anti-phospho-eIF2alpha, read-out: IC50 GCN2 (cell assay)
Protocol: Cellular Assay for the Determination of Compound Activities
Human U2OS cells (2000 cells/well) are seeded into 384-well plates and incubated for 20 hours.
The next day, the cells are treated with the test compounds and incubated for 2 hours. Then, tryptophanol, at a final concentration of 600 μM, is added to the cells and those are incubated for 30 minutes.
The analysis of cellular GCN2 activities is done by immunocytochemistry. Briefly, cells are fixated on the well surfaces by formaldehyde and permeabilised with Triton X-100. The primary antibody (anti-phospho-eIF2alpha (Ser51, Cell Signalling Technology, #3398) is incubated on the treated cells for 20 hours, followed by a 60 minutes incubation of the secondary antibody (anti-rabbit-IgG-Alexa 488; Molecular Probes #11008). The analysis and quantification of phosphorylated GCN2 is done by scanning the plates in the Acumen Explorer system (TTPLabtech). The obtained data are normalised against the untreated control wells (DMSO only) and expressed as % effect values. The determination of IC50 values is done by using the Graph Pad Prism software.
Target sequence in this assay (Q9P2K8 whole entry): as the sequence (Q9P2K8 whole entry, species assumed) above

Row | IC50 (GCN2 [1]) [µM] | IC50 (GCN2 [2]) [µM] | Compound
1 | < 0.3 | 0.3 to 3 | OC[C@@H]1C[C@H]1Cn1cc(Nc2ncc3nnn(-c4ccc(Cl)c(F)c4)c3n2)cn1 (relative stereo) [Compound A98, ((trans)-2-{4-[3-(4-chloro-3-fluoro-phenyl)-3H-[1,2,3]triazolo[4,5-d]pyrimidin-5-ylamino]-pyrazol-1-ylmethyl}-cyclopropyl)-methanol]
2 | 0.3 to 3 | 3 to 50 | COc1ccc(-n2nnc3cnc(Nc4cnn(-c5ccccc5)c4)nc32)cc1 [Compound A1, [3-(4-methoxy-phenyl)-3H-[1,2,3]triazolo[4,5-d]pyrimidin-5-yl]-(1-phenyl-1H-pyrazol-4-yl)-amine]
3 | < 0.3 | 3 to 50 | COc1ccc(-n2nnc3cnc(Nc4cn[nH]c4)nc32)cc1 [Compound A3, [3-(4-methoxy-phenyl)-3H-[1,2,3]triazolo[4,5-d]pyrimidin-5-yl]-(1H-pyrazol-4-yl)-amine]
4 | < 0.3 | 3 to 50 | c1ccc(-n2nnc3cnc(Nc4cn[nH]c4)nc32)cc1 [Compound A4, (3-phenyl-3H-[1,2,3]triazolo[4,5-d]pyrimidin-5-yl)-(1H-pyrazol-4-yl)-amine]
5 | < 0.3 | 0.3 to 3 | COc1ccc(-n2nnc3cnc(Nc4cnn(C5CCNCC5)c4)nc32)cc1 [Compound A6, [3-(4-methoxy-phenyl)-3H-[1,2,3]triazolo[4,5-d]pyrimidin-5-yl]-(1-piperidin-4-yl-1H-pyrazol-4-yl)-amine]
6 | < 0.3 | 0.3 to 3 | COc1ccc(-n2nnc3cnc(Nc4cnn(C5CCN(C)CC5)c4)nc32)cc1 [Compound A8, [3-(4-methoxy-phenyl)-3H-[1,2,3]triazolo[4,5-d]pyrimidin-5-yl]-[1-(1-methyl-piperidin-4-yl)-1H-pyrazol-4-yl]-amine]
7 | 0.3 to 3 | 0.3 to 3 | CN1CCC(n2cc(Nc3ncc4nnn(-c5ccccc5)c4n3)cn2)CC1 [Compound A11, [1-(1-methyl-piperidin-4-yl)-1H-pyrazol-4-yl]-(3-phenyl-3H-[1,2,3]triazolo[4,5-d]pyrimidin-5-yl)-amine]
8 | < 0.3 | 0.3 to 3 | COc1ccc(-n2nnc3cnc(Nc4cnn(C5COC5)c4)nc32)cc1 [Compound A23, 3-(4-methoxyphenyl)-N-[1-(oxetan-3-yl)pyrazol-4-yl]triazolo[4,5-d]pyrimidin-5-amine]
9 | < 0.3 | 0.3 to 3 | COCCN1CCC(n2cc(Nc3ncc4nnn(-c5ccc(OC)cc5)c4n3)cn2)CC1 [Compound A26, N-[1-[1-(2-methoxyethyl)-4-piperidyl]pyrazol-4-yl]-3-(4-methoxyphenyl)triazolo[4,5-d]pyrimidin-5-amine]
10 | < 0.3 | 0.3 to 3 | COCCOc1ccc(-n2nnc3cnc(Nc4cnn(C5CCN(C)CC5)c4)nc32)cc1 [Compound A27, 3-[4-(2-methoxyethoxy)phenyl]-N-[1-(1-methyl-4-piperidyl)pyrazol-4-yl]triazolo[4,5-d]pyrimidin-5-amine]
11 | < 0.3 | 0.3 to 3 | CCOc1ccc(-n2nnc3cnc(Nc4cnn(C5CCN(C)CC5)c4)nc32)cc1 [Compound A28, 3-(4-ethoxyphenyl)-N-[1-(1-methyl-4-piperidyl)pyrazol-4-yl]triazolo[4,5-d]pyrimidin-5-amine]
12 | < 0.3 | 0.3 to 3 | COc1cc(-n2nnc3cnc(Nc4cnn(C5CCN(C)CC5)c4)nc32)ccn1 [Compound A30, 3-(2-methoxy-4-pyridyl)-N-[1-(1-methyl-4-piperidyl)pyrazol-4-yl]triazolo[4,5-d]pyrimidin-5-amine]
13 | < 0.3 | 0.3 to 3 | CN1CCC(n2cc(Nc3ncc4nnn(-c5ccc(Cl)c(F)c5)c4n3)cn2)CC1 [Compound A44, [3-(4-chloro-3-fluoro-phenyl)-3H-[1,2,3]triazolo[4,5-d]pyrimidin-5-yl]-[1-(1-methyl-piperidin-4-yl)-1H-pyrazol-4-yl]-amine]
14 | < 0.3 | 0.3 to 3 | CCOc1ccc(-n2nnc3cnc(Nc4cnn(CC)c4)nc32)cc1 [Compound A46, [3-(4-ethoxy-phenyl)-3H-[1,2,3]triazolo[4,5-d]pyrimidin-5-yl]-(1-ethyl-1H-pyrazol-4-yl)-amine]
15 | < 0.3 | 0.3 to 3 | CN1CCC(n2cc(Nc3ncc4nnn(-c5ccc(N6CCCC6=O)cc5)c4n3)cn2)CC1 [Compound A48, 1-(4-{5-[1-(1-methyl-piperidin-4-yl)-1H-pyrazol-4-ylamino]-[1,2,3]triazolo[4,5-d]pyrimidin-3-yl}-phenyl)-pyrrolidin-2-one]
16 | < 0.3 |  | COc1ccc(-n2nnc3cnc(Nc4cnn([C@H]5CC[C@@H](O)CC5)c4)nc32)nc1 [Compound A141, 4-{4-[3-(5-methoxy-pyridin-2-yl)-3H-[1,2,3]triazolo[4,5-d]pyrimidin-5-ylamino]-pyrazol-1-yl}-cyclohexanol]
17 | < 0.3 |  | CN1CCC(n2cc(Nc3ncc4nnn(-c5ccc(S(N)(=O)=O)cc5)c4n3)cn2)CC1 [Compound A142, 4-{5-[1-(1-methyl-piperidin-4-yl)-1H-pyrazol-4-ylamino]-[1,2,3]triazolo[4,5-d]pyrimidin-3-yl}-benzenesulfonamide]
18 | < 0.3 |  | COc1ccc(-n2nnc3cnc(Nc4cnn([C@H]5CC[C@H](O)CC5)c4)nc32)nc1 [Compound A143, 4-{4-[3-(5-methoxy-pyridin-2-yl)-3H-[1,2,3]triazolo[4,5-d]pyrimidin-5-ylamino]-pyrazol-1-yl}-cyclohexanol]
19 | < 0.3 |  | CC(C)(F)c1ccc(-n2nnc3cnc(Nc4cnn(C5CCOCC5)c4)nc32)cc1 [Compound A144, {3-[4-(1-fluoro-1-methyl-ethyl)-phenyl]-3H-[1,2,3]triazolo[4,5-d]pyrimidin-5-yl}-[1-(tetrahydro-pyran-4-yl)-1H-pyrazol-4-yl]-amine]
20 | 0.3 to 3 |  | O=C1COCCN1n1cc(Nc2ncc3nnn(-c4ccc5cccnc5c4)c3n2)cn1 [Compound A145, 4-[4-(3-quinolin-7-yl-3H-[1,2,3]triazolo[4,5-d]pyrimidin-5-ylamino)-pyrazol-1-yl]-morpholin-3-one]
21 | 0.3 to 3 |  | Cn1ccc(-n2nnc3cnc(Nc4cnn(C5CCOCC5)c4)nc32)n1 [Compound A147, [3-(1-methyl-1H-pyrazol-3-yl)-3H-[1,2,3]triazolo[4,5-d]pyrimidin-5-yl]-[1-(tetrahydro-pyran-4-yl)-1H-pyrazol-4-yl]-amine]
22 | 0.3 to 3 |  | CCn1cc(Nc2ncc3nnn(-c4ccc(C(C)(C)N)cc4)c3n2)cn1 [Compound A148, {3-[4-(1-amino-1-methyl-ethyl)-phenyl]-3H-[1,2,3]triazolo[4,5-d]pyrimidin-5-yl}-(1-ethyl-1H-pyrazol-4-yl)-amine]
23 | < 0.3 |  | CCOc1ccc(-n2nnc3cnc(Nc4cnn(CCN5CCOCC5=O)c4)nc32)cc1 [Compound A149, 4-(2-{4-[3-(4-ethoxy-phenyl)-3H-[1,2,3]triazolo[4,5-d]pyrimidin-5-ylamino]-pyrazol-1-yl}-ethyl)-morpholin-3-one]
24 | < 0.3 |  | CCOc1ccc(-n2nnc3cnc(Nc4cnn(C5CN(C(=O)COC)C5)c4)nc32)cc1 [Compound A150, 1-(3-{4-[3-(4-ethoxy-phenyl)-3H-[1,2,3]triazolo[4,5-d]pyrimidin-5-ylamino]-pyrazol-1-yl}-azetidin-1-yl)-2-methoxy-ethanone]
25 | < 0.3 |  | CCOc1ccc(-n2nnc3cnc(Nc4cnn(CCN5CCC(O)C5)c4)nc32)cc1 (stereo not shown) [Compound A151, 1-(2-{4-[3-(4-ethoxy-phenyl)-3H-[1,2,3]triazolo[4,5-d]pyrimidin-5-ylamino]-pyrazol-1-yl}-ethyl)-pyrrolidin-3-ol]
26 | < 0.3 |  | CC(C)(N)c1ccc(-n2nnc3cnc(Nc4cnn(C5CCOCC5)c4)nc32)cc1 [Compound A152, {3-[4-(1-amino-1-methyl-ethyl)-phenyl]-3H-[1,2,3]triazolo[4,5-d]pyrimidin-5-yl}-[1-(tetrahydro-pyran-4-yl)-1H-pyrazol-4-yl]-amine]
27 | < 0.3 |  | CN1CCC(n2cc(Nc3ncc4nnn(-c5ccc(Cl)cc5)c4n3)cn2)CC1 [Compound A153, [3-(4-chloro-phenyl)-3H-[1,2,3]triazolo[4,5-d]pyrimidin-5-yl]-[1-(1-methyl-piperidin-4-yl)-1H-pyrazol-4-yl]-amine]
28 | 0.3 to 3 |  | CS(=O)(=O)N1CCC(n2cc(Nc3ncc4nnn(-c5ccc(F)c(Cl)c5)c4n3)cn2)CC1 [Compound A154, [3-(3-chloro-4-fluoro-phenyl)-3H-[1,2,3]triazolo[4,5-d]pyrimidin-5-yl]-[1-(1-methanesulfonyl-piperidin-4-yl)-1H-pyrazol-4-yl]-amine]
